Biological target: T1, formate dehydrogenase (FDH) (Candida boidinii, UniProt O13437)
T1 sequence (O13437 1-364): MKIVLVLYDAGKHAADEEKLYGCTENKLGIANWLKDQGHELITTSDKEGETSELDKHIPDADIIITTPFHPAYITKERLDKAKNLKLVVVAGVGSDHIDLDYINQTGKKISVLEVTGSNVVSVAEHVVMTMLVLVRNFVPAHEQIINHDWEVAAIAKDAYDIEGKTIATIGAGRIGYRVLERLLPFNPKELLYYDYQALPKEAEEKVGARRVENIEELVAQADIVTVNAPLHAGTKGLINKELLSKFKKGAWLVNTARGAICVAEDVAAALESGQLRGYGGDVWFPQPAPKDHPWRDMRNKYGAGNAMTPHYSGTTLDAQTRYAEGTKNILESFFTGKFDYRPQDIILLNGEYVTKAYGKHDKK
Assay: FDH reaction system using methylviologen as artificial coenzyme
Assay type: biochemical
Conditions: 5.0 units FDH
Protocol: 2.2 mM of formic acid, 4.4 mM of methylviologen (MV^2+ was used), and 5.0 units of FDH were incubated, and NADH was detected (lower row, left).
The enzyme catalyzing the reaction converting formic acid into carbon dioxide, “formate dehydrogenase (FDH)” also catalyzes the reaction converting carbon dioxide into formic acid. It should be noted that the speed of the conversion reaction from carbon dioxide into formic acid (reverse reaction) is about one sixth the speed of the conversion reaction from formic acid into carbon dioxide (forward reaction) (FIG. 1). Suppression of the forward reaction is important for the formation of formic acid from carbon dioxide using this enzyme. The original coenzyme of FDH is NAD^+, but methylviologen may be used as an artificial coenzyme (mediator) (Non-Patent Literature 2). However, in the past report, only the interaction between FDH and methylviologen is electrochemically measured, so that no essential finding about the interaction is obtained. Therefore, we studied the characteristics of the […] reaction system using methylviologen as an artificial coenzyme in detail. […] Methylviologen is advantageous also in that it is readily photoreduced using a photosensitive molecule. In contrast, photoreduction of the original coenzyme, NAD^+ is not easy.

C[n+]1ccc(-c2cc[n+](C)cc2)cc1 [methylviologen, 1,1′-dimethyl-4,4′-bipyridinium dichloride]
conversion reaction from carbon dioxide into formic acid (reverse reaction) (2.2 mM CO2, 4.4 mM MV^2+ reduced): only proceeds | conversion reaction from formic acid into carbon dioxide (forward reaction) (2.2 mM formic acid, 4.4 mM MV^2+): does not proceed at all

Reference: patent publication US20150176037A1, “OXIDOREDUCTASE REACTION CONTROL AND USE THEREOF” (Amano Enzyme Inc., priority 2012, published 2015)
